# ChEMBL document CHEMBL1201862, “PubChem BioAssay data set” (2004)
#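 Assay format: 96-well plates, 48-hour exposure. GI50: concentration for 50% inhibition of growth.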 Activity calls are given as the source filed them. No stated cut-off is given here; in the data, active = GI50 up to about 1.1 µM and inactive = higher.
# How the values were obtained:
# Assay in all cases: NCI anticancer screen, dose series, 48 h
# [1] = test system: HCT-116
# [2] = test system: SK-MEL-2
# [3] = test system: UACC-62
# [4] = test system: DU-145
# [5] = test system: MCF7
# [6] = test system: K562
# [7] = test system: UACC-257
# [8] = test system: 786-0
# [9] = test system: U-251
# [10] = test system: SN12C
# [11] = test system: Hs-578T
# [12] = test system: SK-OV-3
# [13] = test system: SR
# [14] = test system: TK-10
# [15] = test system: SNB-19
# [16] = test system: SK-MEL-5
# [17] = test system: CAKI-1
# [18] = test system: MDA-N
# [19] = test system: HOP-62
# [20] = test system: HOP-92
SMILES,GI50 [1],GI50 [2],GI50 [3],GI50 [4],GI50 [5],GI50 [6],GI50 [7],GI50 [8],GI50 [9],GI50 [10],GI50 [11],GI50 [12],GI50 [13],GI50 [14],GI50 [15],GI50 [16],GI50 [17],GI50 [18],GI50 [19],GI50 [20]
Cn1c(=O)c2c(nc(C(=N)SCC(=O)O)n2C)n(C)c1=O,26.5 µM (inactive),39.2 µM (inactive),34.4 µM (inactive),61.2 µM (inactive),38.5 µM (inactive),27 µM (inactive),29.1 µM (inactive),45.7 µM (inactive),95.9 µM (inactive),45.9 µM (inactive),97.7 µM (inactive),61.8 µM (inactive),22.7 µM (inactive),40.6 µM (inactive),52.7 µM (inactive),16 µM (inactive),26 µM (inactive),36.2 µM (inactive),56.5 µM (inactive),36.6 µM (inactive)
C#CCOC(=O)C(=[N+]=[N-])C(=O)CC(C)C,> 10 µM (inactive),> 10 µM (inactive),> 10 µM (inactive),> 10 µM (inactive),> 10 µM (inactive),> 10 µM (inactive),> 10 µM (inactive),> 10 µM (inactive),> 10 µM (inactive),> 10 µM (inactive),> 10 µM (inactive),> 10 µM (inactive),> 10 µM (inactive),> 10 µM (inactive),> 10 µM (inactive),> 10 µM (inactive),> 10 µM (inactive),> 10 µM (inactive),> 10 µM (inactive),> 10 µM (inactive)
CC[C@@H]1CN(C)[C@H]2Cc3c([nH]c4ccccc34)C(=O)C[C@H]1C2C(=O)OC (stereo not given in full),> 100 µM (inactive),> 100 µM (inactive),> 100 µM (inactive),> 100 µM (inactive),> 100 µM (inactive),> 100 µM (inactive),> 100 µM (inactive),> 100 µM (inactive),> 100 µM (inactive),> 100 µM (inactive),> 100 µM (inactive),> 100 µM (inactive),> 100 µM (inactive),> 58.9 µM (inactive),> 100 µM (inactive),> 100 µM (inactive),> 100 µM (inactive),> 100 µM (inactive),> 72.8 µM (inactive),> 100 µM (inactive)
Nc1ccc(S(=O)(=O)Nc2nc3ccccc3nc2Nc2ccc(S(N)(=O)=O)cc2)cc1,38.5 µM (inactive),19.1 µM (inactive),30.8 µM (inactive),44.9 µM (inactive),57.8 µM (inactive),69.8 µM (inactive),46 µM (inactive),58.3 µM (inactive),27.7 µM (inactive),34.6 µM (inactive),23 µM (inactive),29.8 µM (inactive),37 µM (inactive),44.6 µM (inactive),25.2 µM (inactive),49.8 µM (inactive),68.7 µM (inactive),56.6 µM (inactive),29.2 µM (inactive),17.6 µM (inactive)
O=C(O)C(Br)C(Br)C(=O)O (stereo not given),> 100 µM (inactive),> 100 µM (inactive),> 100 µM (inactive),> 100 µM (inactive),> 100 µM (inactive),> 100 µM (inactive),> 100 µM (inactive),> 100 µM (inactive),> 100 µM (inactive),> 100 µM (inactive),> 100 µM (inactive),> 100 µM (inactive),28.2 µM (inactive),> 100 µM (inactive),> 100 µM (inactive),> 100 µM (inactive),> 100 µM (inactive),> 100 µM (inactive),> 100 µM (inactive),> 100 µM (inactive)
O=C1c2n[nH]nc2C(=O)c2n[nH]nc21,> 100 µM (inactive),> 100 µM (inactive),> 100 µM (inactive),> 100 µM (inactive),> 100 µM (inactive),> 100 µM (inactive),> 100 µM (inactive),> 100 µM (inactive),> 100 µM (inactive),> 100 µM (inactive),> 100 µM (inactive),> 100 µM (inactive),> 100 µM (inactive),> 100 µM (inactive),> 100 µM (inactive),> 100 µM (inactive),> 100 µM (inactive),> 100 µM (inactive),> 100 µM (inactive),> 100 µM (inactive)
O=c1c2ccccc2[nH]c(=S)n1-c1ccc(/N=N/c2cccc3cc(O)ccc23)cc1,> 100 µM (inactive),> 100 µM (inactive),49.2 µM (inactive),> 100 µM (inactive),27 µM (inactive),73.6 µM (inactive),> 100 µM (inactive),65.5 µM (inactive),54.6 µM (inactive),> 100 µM (inactive),> 100 µM (inactive),> 100 µM (inactive),94.6 µM (inactive),> 100 µM (inactive),> 100 µM (inactive),31.8 µM (inactive),> 100 µM (inactive),> 100 µM (inactive),> 100 µM (inactive),> 100 µM (inactive)
COC(=O)[C@@H]1c2cc3c(c(O)c2[C@@H](OC2OC(C)C(OC)C(C)(OC)C2OC)C[C@]1(C)O)C(=O)c1c(O)cc2c(c1C3=O)O[C@H]1O[C@]2(C)[C@H](O)[C@@H](N(C)C)[C@@H]1O (stereo not given in full),0.00189 µM (active),0.00337 µM (active),0.00386 µM (active),0.0859 µM (active),0.033 µM (active),0.0155 µM (active),0.0143 µM (active),0.00635 µM (active),0.00766 µM (active),< 0.0232 µM (active),0.0203 µM (active),0.0426 µM (active),0.00294 µM (active),0.0297 µM (active),0.00502 µM (active),0.00849 µM (active),0.0419 µM (active),0.0471 µM (active),0.0359 µM (active),0.00532 µM (active)
O=C1OC[C@@H]2Cc3c([nH]c4ccccc34)[C@@H](c3ccc(O)cc3)N12,18.7 µM (inactive),22 µM (inactive),29.9 µM (inactive),40.3 µM (inactive),36.6 µM (inactive),32.1 µM (inactive),29.9 µM (inactive),33.9 µM (inactive),39.2 µM (inactive),41.1 µM (inactive),88.3 µM (inactive),> 56.8 µM (inactive),39.1 µM (inactive),34.7 µM (inactive),54.2 µM (inactive),17.2 µM (inactive),42.8 µM (inactive),33 µM (inactive),35.6 µM (inactive),96.8 µM (inactive)
CCOC(=O)/C(=C\c1ccc(F)cc1)C(C)=O,29.2 µM (inactive),21.2 µM (inactive),18.9 µM (inactive),23.2 µM (inactive),29.4 µM (inactive),30.3 µM (inactive),19.2 µM (inactive),22.3 µM (inactive),19.1 µM (inactive),63 µM (inactive),36.1 µM (inactive),35 µM (inactive),19 µM (inactive),21.6 µM (inactive),33.8 µM (inactive),24.4 µM (inactive),24.3 µM (inactive),37.8 µM (inactive),38.9 µM (inactive),15.1 µM (inactive)
